According to article PMC4478806 (The FASEB Journal, 2015):
“And” between values parts separate entries of the source, which are not always exact repeats. Equal entries are not always repeated. Where two headings read alike, the source gives them in different places.

Legend:
[1] = target: T1, β1YFPN/β1D138AYFPC BiFC-constrained β1-adrenoceptor homodimers (Homo sapiens, UniProt P08588); test: 3 nM BODIPY-TMR-CGP dissociation at BiFC-constrained wild-type/nonligand-binding β1-adrenoceptor homodimers in CHO-K1 cells; conditions: infinite dilution, absence of unlabeled ligands
T1 construct: to the C-terminal end of the full-length wild-type human β1-adrenoceptor; expressed in transfected cells; host or cells: CHO-K1 cells, transient co-transfection (pcDNA3.1)
Source text: (§1) The SNAP-β1 construct was generated by fusing the SNAP-tag (New England Biolabs, Ipswich, MA, USA) to the N-terminal end of the wild-type human β1-adrenoceptor. The […] mutation ([7]) was introduced into the β1-YFPC and the SNAP-β1 sequence using the QuikChange site-directed mutagenesis kit (Agilent Technologies, Cheshire, United Kingdom). All sequences were confirmed by DNA sequencing. All receptor constructs were subcloned into pcDNA3.1 vectors. In bimolecular fluorescence complementation (BiFC) experiments, CHO-K1 cells were seeded onto coverslips on day 1 and transiently transfected with YFPN- and YFPC-tagged β1-adrenoceptor recombinant DNA (750 ng total) using Lipofectamine 2000 and Opti-MEM medium according to the manufacturer's instructions on day 2. […] In BiFC experiments, membrane-associated BODIPY-TMR-CGP fluorescence was measured by drawing ROIs around membranes of cells that were identified to express BiFC-constrained homodimers by examination of the YFP fluorescence. […] The koff is the dissociation rate of BODIPY-TMR-CGP. […] Within this analysis, koff(fast) and Plateau was constrained to the average rate of dissociation and the average Plateau (in %) reached by BODIPY-TMR-CGP in control CHO-CS cells (i.e., cell not expressing the receptor of interest to determine the nonspecific BODIPY-TMR-CGP binding component).

[2] = target: T2, SNAP-β1D138A β1-adrenoceptor (Homo sapiens, UniProt P08588, D138A); test: Confocal imaging of 3 nM BODIPY-TMR-CGP binding to SNAP-tagged D138A β1-adrenoceptor in CHO-K1 cells; conditions: CHO-K1 cells transiently transfected with SNAP-β1D138A, 10 min
T2 construct: expressed in transfected cells; host or cells: CHO-K1 cells, transient transfection (pcDNA3.1)
Source text: The β1-yellow fluorescent protein (YFP)N and β1-YFPC receptor constructs were generated by fusing either the N-terminal fragment of YFP (YFPN; amino acids 1–155) or the C-terminal fragment of YFP (YFPC; amino acids 156–239) to the C-terminal end of the full-length wild-type human β1-adrenoceptor. The SNAP-β1 construct was generated by fusing the SNAP-tag (New England Biolabs, Ipswich, MA, USA) to the N-terminal end of the wild-type human β1-adrenoceptor. The D138A mutation ([7]) was introduced into the β1-YFPC and the SNAP-β1 sequence using the QuikChange site-directed mutagenesis kit (Agilent Technologies, Cheshire, United Kingdom). All sequences were confirmed by DNA sequencing. All receptor constructs were subcloned into pcDNA3.1 vectors.
Confocal microscopy was performed using a Zeiss LSM710 laser scanning microscope with a ×40 1.3 NA oil immersion lens. CHO-K1 cells were grown to 70% confluence in 8-well Labtek borosilicate chambered-cover glasses (Nalgene Nunc International, Fisher Scientific) and transiently transfected with SNAP-β1 or SNAP-β1D138A recombinant DNA using Lipofectamine 2000 and Opti-MEM medium according to the manufacturer’s instructions. […]

CHO-CS cells = test: Association and dissociation of BODIPY-TMR-CGP in control CHO-CS cells (nonspecific binding); design: species or system Chinese hamster; conditions: for koff(fast) / konobs: CHO-CS cells
Source text: Chinese hamster ovary (CHO)-K1 cells were used for all transient transfections. CHO-K1 cells stably expressing the secreted placental alkaline phosphatase reporter gene under the transcriptional control of a 6-cAMP response element promoter (CHO-CS cells) were used as a control, as appropriate. CHO-CS cell lines either expressing human wild-type β1-adrenoceptors (CHO-β1 cells; 1147 fmol/mg protein) ([6]) or human β1-adrenoceptors containing 11 amino acid mutations (G177V, L178I, V179I, C180L, T181M, A184I, I185V, A187G, V189T, L195Q, and W199Y that convert TM4 to the equivalent residues in the β2-adrenoceptor; CHO-β1TM4 cells) ([11]) were used. CHO-K1, CHO-CS, CHO-β1, and CHO-β1TM4 cells were grown at 37°C in CHO growth medium [DMEM/Ham's nutrient mixture F12 containing 10% (v/v) fetal calf serum and 2 mM L-glutamine] in a humidified 5% CO2/95% air atmosphere.
(§2) Live cell fluorescence imaging was performed on the Zeiss LSM510 laser scanning confocal microscope using a Zeiss Plan-Neofluar ×40 1.3 NA oil-immersion objective in conjunction with a temperature-controlled (37°C) perfusion system to allow the visualization and quantification of BODIPY-TMR-CGP dissociation kinetics under infinite dilution (ID) conditions in single living cells ([25]). Kinetic experiments were performed as described by May et al. ([25]). In brief, cells were grown to near confluence on 32 mm glass coverslips in 6-well plates 1 d prior to experimentation. On the day of experimentation, the coverslip was placed into a tightly closed imaging chamber on a heated (37°C) microscope stage, where it was connected to tubes to facilitate the flow of imaging buffer through the imaging chamber in the absence and presence of BODIPY-TMR-CGP and/or unlabeled ligands at a constant flow rate of ≥4 ml/min.
(§3) For association and dissociation kinetic experiments of 10–100 nM BODIPY-TMR-CGP in CHO-β1 and CHO-CS cells, the cells were exposed to imaging buffer only (30 s baseline fluorescence recording), then BODIPY-TMR-CGP (4.5 min association), and followed again by imaging buffer only (4.5 min dissociation). BODIPY-TMR-CGP was excited using a 543 nm helium-neon laser with emission collected through a 565 nm long-pass filter every 3 s throughout each experiment (512 × 512 pixels, averaging at 2 frames). The pinhole diameter (1 airy unit), laser power (2%), offset, and gain remained constant between the 3 BODIPY-TMR-CGP concentrations and the 2 cell lines used. Membrane-associated BODIPY-TMR-CGP fluorescence was measured by drawing regions of interest (ROIs) around the membranes of 10 single cells of each imaged coverslip, and changes in the average pixel intensity values for each ROI over time were analyzed to obtain association and dissociation rates for each experiment.
(§4) GraphPad Prism 5.0 (GraphPad Software, San Diego, CA, USA) was used to fit all data presented in this study. Association kinetic data were fitted using the following monoexponential association equation: [drawing 1] where Y0 is the level of BODIPY-TMR-CGP binding at time t = 0 (i.e., baseline fluorescence), Plateau is the level of BODIPY-TMR-CGP binding at infinite time, and konobs is the rate of observed association.
The koff is the dissociation rate of BODIPY-TMR-CGP. […]

human β1-adrenoceptor [3] = target: T3, human β1-adrenoceptor (Homo sapiens, UniProt P08588); test: 3 nM BODIPY-TMR-CGP kinetics and influence of unlabeled ligands on its dissociation rate in CHO-β1 cells under infinite dilution; format: binding
T3 construct: expressed in transfected cells

human β1-adrenoceptor [4] = target: T3, human β1-adrenoceptor; conditions: cited from earlier work
[5] = target: T4, human β1-adrenoceptors containing 11 amino acid mutations that convert TM4 to the β2-adrenoceptor residues (CHO-β1TM4 cells) (Homo sapiens, UniProt P08588, A184I/A187G/C180L/G177V/I185V/L178I/L195Q/T181M/V179I/V189T/W199Y); test: 3 nM BODIPY-TMR-CGP dissociation in absence and presence of unlabeled ligands in CHO-β1TM4 cells; format: binding; conditions: infinite dilution, absence of unlabeled ligands
T4 construct: expressed in transfected cells
Experimental: Chinese hamster ovary (CHO)-K1 cells were used for all transient transfections. CHO-K1 cells stably expressing the secreted placental alkaline phosphatase reporter gene under the transcriptional control of a 6-cAMP response element promoter (CHO-CS cells) were used as a control, as appropriate. […] In BiFC experiments, membrane-associated BODIPY-TMR-CGP fluorescence was measured by drawing ROIs around membranes of cells that were identified to express BiFC-constrained homodimers by examination of the YFP fluorescence. […] The koff is the dissociation rate of BODIPY-TMR-CGP. […] Within this analysis, koff(fast) and Plateau was constrained to the average rate of dissociation and the average Plateau (in %) reached by BODIPY-TMR-CGP in control CHO-CS cells (i.e., cell not expressing the receptor of interest to determine the nonspecific BODIPY-TMR-CGP binding component).

[6] = target: T5, β1YFPN/β1YFPC BiFC-constrained β1-adrenoceptor homodimers (Homo sapiens, UniProt P08588); test: 3 nM BODIPY-TMR-CGP dissociation at BiFC-constrained wild-type β1-adrenoceptor homodimers in CHO-K1 cells; format: binding; conditions: infinite dilution, absence of unlabeled ligands
T5 construct: to the C-terminal end of the full-length wild-type human β1-adrenoceptor; expressed in transfected cells; host or cells: CHO-K1 cells, transient co-transfection (pcDNA3.1)
Source text: as §1

human β1-adrenoceptor [7] = target: T3, human β1-adrenoceptor; test: Association and dissociation kinetics of 10, 30 and 100 nM BODIPY-TMR-CGP in CHO-β1 cells (confocal perfusion system, single living cells); format: binding; conditions: for pKD: from kon and koff(slow); for koff(fast): nonspecific component constrained to average CHO-CS dissociation rate
Experimental: as §2, §3, §4
The koff is the dissociation rate of BODIPY-TMR-CGP. Where a level of nonspecific binding >10% of total binding was observed, the dissociation kinetic data were fitted to a 2-phase exponential decay function [drawing 5] where Plateau and t are as defined above, and Spanfast and Spanslow represent the proportion of Y0-Plateau accounted for by the fast (koff(fast)) and slow (koff(slow)) dissociation rate, respectively. Within this analysis, koff(fast) and Plateau was constrained to the average rate of dissociation and the average Plateau (in %) reached by BODIPY-TMR-CGP in control CHO-CS cells (i.e., cell not expressing the receptor of interest to determine the nonspecific BODIPY-TMR-CGP binding component).

[8] = 3 nM BODIPY-TMR-CGP, global fit of association and dissociation traces
[9] = 3 nM BODIPY-TMR-CGP, based on affinity from functional assays

T5 sequence (P08588 whole entry): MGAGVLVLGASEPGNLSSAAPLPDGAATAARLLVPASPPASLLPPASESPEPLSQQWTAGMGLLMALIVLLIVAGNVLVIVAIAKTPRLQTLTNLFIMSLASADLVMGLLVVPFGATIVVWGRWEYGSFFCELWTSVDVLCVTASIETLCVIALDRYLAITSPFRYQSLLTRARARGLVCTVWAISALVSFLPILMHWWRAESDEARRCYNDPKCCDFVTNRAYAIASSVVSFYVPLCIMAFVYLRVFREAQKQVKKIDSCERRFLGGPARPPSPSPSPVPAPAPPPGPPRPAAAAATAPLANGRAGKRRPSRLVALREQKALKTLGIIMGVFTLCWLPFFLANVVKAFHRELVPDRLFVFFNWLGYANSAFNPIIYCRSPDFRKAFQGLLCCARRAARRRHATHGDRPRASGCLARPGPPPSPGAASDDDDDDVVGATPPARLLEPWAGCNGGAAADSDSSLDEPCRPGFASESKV
T5 sequence (P08588 whole entry): as above
T3 sequence (P08588 whole entry): as above
T1 sequence (P08588 whole entry): as above
T1 sequence (P08588 whole entry D138A partner): as the sequence (P08588 whole entry) above, with D138A counted along it
T4 sequence (P08588 whole entry G177V/L178I/V179I/C180L/T181M/A184I/I185V/A187G/V189T/L195Q/W199Y): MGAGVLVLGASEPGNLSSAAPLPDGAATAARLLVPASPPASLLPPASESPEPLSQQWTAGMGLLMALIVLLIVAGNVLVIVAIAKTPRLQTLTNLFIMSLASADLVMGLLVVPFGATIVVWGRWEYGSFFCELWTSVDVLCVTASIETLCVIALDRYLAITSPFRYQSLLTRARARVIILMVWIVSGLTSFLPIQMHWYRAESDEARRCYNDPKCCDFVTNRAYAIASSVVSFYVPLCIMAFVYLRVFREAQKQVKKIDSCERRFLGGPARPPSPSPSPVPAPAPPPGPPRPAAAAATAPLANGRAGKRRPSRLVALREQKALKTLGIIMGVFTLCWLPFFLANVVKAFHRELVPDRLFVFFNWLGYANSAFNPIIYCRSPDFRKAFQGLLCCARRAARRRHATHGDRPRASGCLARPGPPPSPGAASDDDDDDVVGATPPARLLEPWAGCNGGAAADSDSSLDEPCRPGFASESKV
T2 sequence (P08588 whole entry D138A): as the sequence (P08588 whole entry) above, with D138A counted along it

Substance: bordifluoropyrromethane-tetramethylrhodamine-(±)CGP 12177 [BODIPY-TMR-CGP]
- koff of 3 nM BODIPY-TMR-CGP [1]: 0.054 ± 0.011 min⁻¹ and 0.05 ± 0.01 min⁻¹
- binding of 3 nM BODIPY-TMR-CGP (membrane fluorescence) [2]: no binding
- koff(fast) (CHO-CS cells; 30 nM BODIPY-TMR-CGP): 2.46 ± 0.48 min⁻¹
- konobs (CHO-CS cells; 30 nM BODIPY-TMR-CGP): 1.40 ± 0.26 min⁻¹
- koff(fast) (CHO-CS cells; 100 nM BODIPY-TMR-CGP): 2.47 ± 0.13 min⁻¹
- konobs (CHO-CS cells; 100 nM BODIPY-TMR-CGP): 1.62 ± 0.13 min⁻¹
- average dissociation rate obtained in CHO-CS cells (CHO-CS cells; average over BODIPY-TMR-CGP concentrations, used as constraint for koff(fast)): 2.47 min⁻¹
- association rate constant (kon) (human β1-adrenoceptor [3]; [8]): 5.27 ± 0.53 × 10^7 M^−1⋅min^−1
- dissociation rate (koff) (human β1-adrenoceptor [3]; [8]): 0.08 ± 0.01 min⁻¹
- pKD (human β1-adrenoceptor [3]; [8]): 8.83 ± 0.06
- koff of 3 nM BODIPY-TMR-CGP (human β1-adrenoceptor [3]; infinite dilution, absence of unlabeled ligands, 1-phase dissociation): 0.09 ± 0.01 min⁻¹ and 0.09 min⁻¹
- occupancy of the high-affinity β1-adrenoceptor conformation (human β1-adrenoceptor [4]; [9]): ~86%
- occupancy of the secondary low-affinity β1-adrenoceptor conformation (human β1-adrenoceptor [4]; [9]): ~3%
- Kd (human β1-adrenoceptor [4]; functional studies, read-out: affinity value for the high-affinity (orthosteric) β1-adrenoceptor conformation): 0.6 nM
- Kd (human β1-adrenoceptor [4]; read-out: affinity value for the low-affinity β1-adrenoceptor conformation): 87 nM
- koff of 3 nM BODIPY-TMR-CGP [5]: 0.066 ± 0.005 min⁻¹ and 0.07 ± 0.02 min⁻¹
- koff of 3 nM BODIPY-TMR-CGP [6]: 0.02 ± 0.01 min⁻¹ and 0.02 min⁻¹
- kon (human β1-adrenoceptor [7]; 10 nM BODIPY-TMR-CGP): 5.29 ± 0.79 ×10^7 M^−1⋅min^−1
- konobs (human β1-adrenoceptor [7]; 10 nM BODIPY-TMR-CGP): 0.63 ± 0.08 min⁻¹
- pKD (human β1-adrenoceptor [7]; 10 nM BODIPY-TMR-CGP): 8.71 ± 0.05
- koff(slow) (human β1-adrenoceptor [7]; 10 nM BODIPY-TMR-CGP, monoexponential dissociation): 0.09 ± 0.01 min⁻¹
- kon (human β1-adrenoceptor [7]; 30 nM BODIPY-TMR-CGP): 5.17 ± 0.28 ×10^7 M^−1⋅min^−1
- konobs (human β1-adrenoceptor [7]; 30 nM BODIPY-TMR-CGP): 1.64 ± 0.08 min⁻¹
- koff(slow) (human β1-adrenoceptor [7]; 30 nM BODIPY-TMR-CGP, 2-phase decay): 0.09 ± 0.01 min⁻¹
- pKD (human β1-adrenoceptor [7]; 30 nM BODIPY-TMR-CGP): 8.77 ± 0.08
- koff(fast) (human β1-adrenoceptor [7]; 30 nM BODIPY-TMR-CGP): 2.47 min⁻¹
- kon (human β1-adrenoceptor [7]; 100 nM BODIPY-TMR-CGP): 2.94 ± 0.12^*^,^# ×10^7 M^−1⋅min^−1
- konobs (human β1-adrenoceptor [7]; 100 nM BODIPY-TMR-CGP): 3.08 ± 0.11 min^−1 and 3.08 ± 0.11^*^,^# min^−1
- koff(slow) (human β1-adrenoceptor [7]; 100 nM BODIPY-TMR-CGP, 2-phase decay): 0.14 ± 0.02^*^,^# min^−1
- pKD (human β1-adrenoceptor [7]; 100 nM BODIPY-TMR-CGP): 8.32 ± 0.06^*^,^#
- koff(fast) (human β1-adrenoceptor [7]; 100 nM BODIPY-TMR-CGP): 2.47 min⁻¹
